According to US9387248B2, “Pharmaceutical composition comprising antibody composition which specifically binds to CCR4” (KYOWA HAKKO KIRIN CO., LTD, priority 2009, dated 2016):

B1: KM8760: human CDR-grafted anti-CCR4 antibody lacking fucose modification, VH SEQ ID NO:11, VL SEQ ID NO:12 (antibody, V domains shown)
VH: EVQLVESGGDLVQPGRSLRLSCAASGFIFSNYGMSWVRQAPGKGLEWVATISSASTYSYYPDSVKGRFTISRDNAKNSLYLQMNSLRVEDTALYYCGRHSDGNFAFGYWGQGTLVTVSS
VL: DVLMTQSPLSLPVTPGEPASISCRSSRNIVHINGDTYLEWYLQKPGQSPQLLIYKVSNRFSGVPDRFSGSGSGTDFTLKISRVEAEDVGVYYCFQGSLLPWTFGQGTKVEIK
modifications: afucosylated

Tests used:
[1] = test system: HH cells grafted into SCID mice; assay: Antitumor effect of anti-CCR4 antibody and Lenalidomide in combination (1), HH cells grafted into SCID mice; type: in vivo, SCID mouse; conditions: KM8760 20 mg/kg iv Day 0, 7, 14, Lenalidomide 1 mg/kg ip daily Day 0-13
Experimental: HH cells (human multiple myeloma cell; ATCC No: CRL-2105) were suspended in Dulbecco's phosphate buffered saline without calcium chloride and magnesium chloride (PBS, manufactured by Invitrogen) at a density of 1×10^7 cells/mL, and 100 μL of the suspension was transplanted into the ventral skin of SCID mouse (obtained by Nippon Crea, male). Seven days after the cell transplantation, a diameter of a tumor was measured with calipers, and a tumor volume was calculated using the following formula. Tumor volume=short diameter×short diameter×long diameter×0.5 (Formula)
Individuals having the tumor volume within the range of 41 to 93 mm^3 were selected, and grouped such that the average of tumor volume was to be equal. Then, the following administration groups A to D were arranged. The day of grouping was defined as Day 0.
(§1) A. Negative control group: Administration of medium
B. Group administering KM8760 alone: 20 mg/kg was administered on Day 0, Day 7 and Day 14.
(§2) C. Group administering Lenalidomide alone: 1 mg/kg was administered everyday on Day 0 to Day 13.
(§3) D. Group administering KM8760 and Lenalidomide in combination: the respective agent was administered on the same schedule and at the same dose as each group administering respective agent alone.
The experiment was conducted with groups each consisting of eight mice. KM8760 was diluted with saline (manufactured by Otsuka Pharmaceutical), and the obtained solution was administered from the tail vein. Lenalidomide was suspended with saline containing 0.5% of methylcellulose and the obtained solution was intraperitoneally administered. The tumor volume was measured chronologically. The antitumor effect was evaluated by comparing the average values of values (V/V0) obtained by dividing the tumor volume on each day of measurement by the tumor volume on Day 0 in each group.
The results of the test for significant differences (One-way ANOVA, Dunnett test) compared with the negative control group are shown in Table 1. In addition, when p<0.05, the value is considered to show a significant difference and is shown with * in the table.
(§4) In the table, * means the case where the actual value of T/C is smaller than the theoretical value.

[2] = test system: HH cells grafted into SCID mice; assay: Antitumor effect of anti-CCR4 antibody and Lenalidomide in combination (2), HH cells grafted into SCID mice; type: in vivo, SCID mouse; conditions: KM8760 20 mg/kg iv Day 0, 7, 14, 21, Lenalidomide 1 mg/kg ip daily Day 0-13
Experimental: HH cells (human multiple myeloma cell line; ATCC No: CRL-2105) were suspended in Dulbecco's phosphate buffered saline without calcium chloride and magnesium chloride (PBS, manufactured by Invitrogen) at a density of 2×10^8 cells/mL, and 100 μL of the suspension was transplanted into the ventral skin of SCID mouse (obtained by Nippon Crea, male). Seven days after the cell transplantation, a diameter of a tumor was measured with calipers, and a tumor volume was calculated using the following formula. Tumor volume=short diameter×short diameter×long diameter×0.5 (Formula)
Individuals having the tumor volume within the range of 51 to 79 mm^3 were selected, and grouped such that the average of tumor volume was to be equal. Then, the following administration groups A to D were arranged. The day of grouping was defined as Day 0.
as §1
B. Group administering KM8760 alone: 20 mg/kg was administered on Day 0, Day 7, Day 14 and Day 21.
as §2, §3
The experiment was conducted with groups each consisting of twelve mice. KM8760 was diluted with saline (manufactured by Otsuka Pharmaceutical), and the obtained solution was administered from the tail vein. Lenalidomide was suspended with saline containing 0.5% of methylcellulose and the diluent was intraperitoneally administered. The tumor volume was measured chronologically. The antitumor effect was evaluated by comparing the average values of values (V/V0) obtained by dividing the tumor volume on each day of measurement by the tumor volume on Day 0 in each group.
The result of a test for a significant difference (Steel-Dwass test) between each group administering the respective agent alone and combination administration group is shown in Table 3. In the table, na means not applicable. In addition, when p<0.05, the value is considered to show a significant difference and is shown with * in the table.
as §4

HH cells = assay: ADCC activity of KM8760 with Lenalidomide-treated hPBMC effector cells, 51Cr release; type: cell-based, human; conditions: hPBMC effector cells treated with 0.1, 1 or 10 μmol/L Lenalidomide for one, three or five days; effector:target 25:1; KM8760 0.01, 0.1, 1 μg/mL
Experimental: Mononuclear cells (hPBMC) were obtained from peripheral blood from healthy adults by density-gradient centrifugation using Ficoll-paque (manufactured by GE health care). The obtained hPBMC was suspended in RPMI1640 medium containing 10% of FBS and 1% of penicillin/streptomycin solution (manufactured by Nacalai Tesque) (hereinafter referred to as medium). Lenalidomide was added to the suspension to give a final concentration of […]. The obtained suspension was incubated at 37° C. for one, three or five days. Thereafter incubation, hPBMC was washed one time with the medium, and the washed cells were adjusted to give a concentration of about 5×10^6 cells/mL using the medium. The obtained cells were used as effector cells.
After 1×10^6 of HH cells suspended in about 100 μL and 20 μL of ^51Cr solution (NEZ030, manufactured by Perkin-Elmer) were mixed, the mixed solution was incubated at 37° C. for 2 to 4 hours so that HH cells were radiolabeled. […]
On a 96-well U-bottom plate, 50 μL of each of effector cells, target cells and antibody solution was mixed (effector cell:target cell=25:1, final concentration of antibody=0.01, 0.1, or 1 μg/mL) and incubated at 37° C. for 4 hours. […] Herein, CPM was measured using a liquid scintillation counter for microplate (TopCount, manufactured by Perkin-Elmer). […] The rate of cytotoxicity (Lysis %) was calculated using the following formula. […]

| Molecule | T/C (V/V0 of group divided by V/V0 of negative control group) ([1]; Day 0) | T/C (V/V0 of group divided by V/V0 of negative control group) ([1]; Day 4) | T/C (V/V0 of group divided by V/V0 of negative control group) ([1]; Day 7) | T/C (V/V0 of group divided by V/V0 of negative control group) ([1]; Day 10) | T/C (V/V0 of group divided by V/V0 of negative control group) ([1]; Day 14) | T/C (V/V0 of group divided by V/V0 of negative control group) ([1]; Day 17) | T/C (V/V0 of group divided by V/V0 of negative control group) ([1]; Day 21) | T/C (V/V0 of group divided by V/V0 of negative control group) ([2]; Day 0) | T/C (V/V0 of group divided by V/V0 of negative control group) ([2]; Day 4) | T/C (V/V0 of group divided by V/V0 of negative control group) ([2]; Day 7) | T/C (V/V0 of group divided by V/V0 of negative control group) ([2]; Day 10) | T/C (V/V0 of group divided by V/V0 of negative control group) ([2]; Day 14) | T/C (V/V0 of group divided by V/V0 of negative control group) ([2]; Day 19) | T/C (V/V0 of group divided by V/V0 of negative control group) ([2]; Day 21) | T/C (V/V0 of group divided by V/V0 of negative control group) ([2]; Day 24) | T/C (V/V0 of group divided by V/V0 of negative control group) ([2]; Day 28) | ADCC activity of KM8760 (cytotoxicity rate, Lysis %, FIG. 3) (HH cells) |
| --- | --- | --- | --- | --- | --- | --- | --- | --- | --- | --- | --- | --- | --- | --- | --- | --- | --- |
| Nc1cccc2c1CN(C1CCC(=O)NC1=O)C2=O (stereo not drawn) [Lenalidomide] | 1.000 | 1.041 | 0.918 | 0.948 | 0.875 | 0.750 | 0.766 | 1.00 | 1.05 | 0.92 | 0.93 | 0.75 | 0.90 | 0.88 | 0.95 | 0.95 | clearly enhanced |
| B1 | 1.000 | 0.910 | 0.764 | 0.750 | 0.691 | 0.652 | 0.639 | 1.00 | 0.89 | 0.71 | 0.62 | 0.54 | 0.54 | 0.54 | 0.55 | 0.53 | – |
